The subject of this experiment is L1210 leukemia ip in BDF1 mice, survival T/C. The experiment in a line: NCI In Vivo Anticancer Drug Screen. Data for tumor model L1210 Leukemia (intraperitoneal) in B6D2F1 (BDF1) mice. The settings on record: endpoint: mean survival time, higher = longer survival. Summed up:
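Survival endpoint. Drug-treated group vs vehicle group, expressed as T divided by C. Tumor passaged by transplantation.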

[1] abbreviates: dose: 100.0 mg/kg/injection, schedule: Q01DX009 (ip), vehicle: saline with Tween-80.
The mark [2] stands for this setting: dose: 100.0 mg/kg/injection, schedule: Q04DX003 (ip), vehicle: saline with Tween-80.
Where [3] appears, read: dose: 200.0 mg/kg/injection, schedule: Q01DX009 (ip), vehicle: saline with Tween-80.
The mark [4] stands for this setting: dose: 200.0 mg/kg/injection, schedule: Q04DX003 (ip), vehicle: saline with Tween-80.
[5] abbreviates: dose: 400.0 mg/kg/injection, schedule: Q04DX003 (ip), vehicle: saline with Tween-80.
Where [6] appears, read: dose: 100.0 mg/kg/injection, schedule: Q04DX003 (ip), vehicle: Klucel (hydroxypropylcellulose) (HPC).
The mark [7] stands for this setting: dose: 200.0 mg/kg/injection, schedule: Q04DX003 (ip), vehicle: Klucel (hydroxypropylcellulose) (HPC).
Where [8] appears, read: dose: 400.0 mg/kg/injection, schedule: Q04DX003 (ip), vehicle: Klucel (hydroxypropylcellulose) (HPC).
[9] abbreviates: dose: 100.0 mg/kg/injection, schedule: Q04DX002 (ip), vehicle: Klucel (hydroxypropylcellulose) (HPC).
Where [10] appears, read: dose: 200.0 mg/kg/injection, schedule: Q04DX002 (ip), vehicle: Klucel (hydroxypropylcellulose) (HPC).
Where [11] appears, read: dose: 400.0 mg/kg/injection, schedule: Q04DX002 (ip), vehicle: Klucel (hydroxypropylcellulose) (HPC).
Setting [12] is: dose: 100.0 mg/kg/injection, schedule: Q01DX001 (ip), vehicle: saline.
Where [13] appears, read: dose: 75.0 mg/kg/injection, schedule: Q04DX003 (ip), vehicle: saline.
Setting [14] is: dose: 150.0 mg/kg/injection, schedule: Q04DX003 (ip), vehicle: saline.
Setting [15] is: dose: 300.0 mg/kg/injection, schedule: Q04DX003 (ip), vehicle: saline.
Setting [16] is: dose: 50.0 mg/kg/injection, schedule: Q01DX009 (ip), vehicle: Klucel (hydroxypropylcellulose) (HPC).
The mark [17] stands for this setting: dose: 100.0 mg/kg/injection, schedule: Q01DX009 (ip), vehicle: Klucel (hydroxypropylcellulose) (HPC).
The mark [18] stands for this setting: dose: 200.0 mg/kg/injection, schedule: Q01DX009 (ip), vehicle: Klucel (hydroxypropylcellulose) (HPC).
The mark [19] stands for this setting: dose: 400.0 mg/kg/injection, schedule: Q01DX009 (ip), vehicle: saline with Tween-80.

This is an account of results in PubChem BioAssay AID248 (DTP/NCI, 2004).

Each structure is given as a SMILES string. Toxic doses and inconclusive results are not listed.

With `COC1c2c(nc3ccccc3c2C(N)=O)-c2ccccc2C1(C)C` (stereo not given), the T/C runs as follows: (dose: 100.0 mg/kg/injection, schedule: Q04DX003 (ip), vehicle: saline) 89 % of control; (dose: 200.0 mg/kg/injection, schedule: Q04DX003 (ip), vehicle: saline) 103 % of control; (dose: 400.0 mg/kg/injection, schedule: Q04DX003 (ip), vehicle: saline) 94 % of control.
For `CSc1nc(Cl)cc(-c2ccccc2)n1`, the T/C (dose: 200.0 mg/kg/injection, schedule: Q01DX Z (ip), vehicle: methylcellulose (MC)) is 106 % of control.
In the case of `O=C(O)c1ccc(Oc2nc3ccccc3s2)cc1`, the T/C runs as follows: under setting [1], 102 % of control; under setting [2], 111 % of control; under setting [3], 120 % of control; under setting [4], 97 % of control; under setting [5], 86 % of control.
As for `N#C/C(=C\C1C(Cl)CCCC1Cl)C1CCC([N+](=O)[O-])CC1` (stereo not given), the T/C reads like this: (dose: 100.0 mg/kg/injection, schedule: Q04DX002 (ip), vehicle: saline with Tween-80) 101 % of control; (dose: 200.0 mg/kg/injection, schedule: Q04DX002 (ip), vehicle: saline with Tween-80) 97 % of control; (dose: 400.0 mg/kg/injection, schedule: Q04DX002 (ip), vehicle: saline with Tween-80) 101 % of control.
On to `N=C(c1ccccc1)C1SCCCS1`, for which the T/C was 103 % of control under setting [6], 97 % of control under setting [7] and 97 % of control under setting [8].
Turning to `CC/C=C(/C)CCC`, the T/C reads like this: under setting [2], 93 % of control; under setting [4], 93 % of control; under setting [5], 98 % of control.
For the compound `CC(=O)Nc1ccc(NC(=O)c2ccc(F)cc2)cc1`, the T/C is 91 % of control (dose: 100.0 mg/kg/injection, schedule: Q01DX009 (ip), vehicle: gum acacia); 89 % of control (dose: 200.0 mg/kg/injection, schedule: Q01DX009 (ip), vehicle: gum acacia); 102 % of control (dose: 400.0 mg/kg/injection, schedule: Q01DX009 (ip), vehicle: gum acacia).
Take `Cc1ccc(NC(=O)COc2ccccc2)c(C)c1`: the T/C under setting [9] was 107 % of control, the T/C under setting [10] was 104 % of control and the T/C under setting [11] was 100 % of control.
`CCCC(CC(=O)O)OC` (stereo not given): the T/C is, setting by setting: under setting [12], 103 % of control; (dose: 200.0 mg/kg/injection, schedule: Q01DX001 (ip), vehicle: saline) 110 % of control; (dose: 400.0 mg/kg/injection, schedule: Q01DX001 (ip), vehicle: saline) 110 % of control.
`O=P(O)(O)O`: the T/C is 93 % of control under setting [13], 98 % of control under setting [14] and 103 % of control under setting [15].
Consider `Cc1nnc(Cl)c2ccccc12`, for which the T/C under setting [12] was 95 % of control.
On to `CCOC(=O)C(CC1CCCCC1)(NC(C)=O)C(=O)OCC`, for which the T/C is, setting by setting: under setting [13], 96 % of control; under setting [14], 104 % of control; under setting [15], 100 % of control.
For the compound `CC(=O)OCC(NC(=O)N(CCCl)N=O)C(OC(C)=O)C(OC(C)=O)C(COC(C)=O)OC(C)=O` (stereo not given), the T/C runs as follows: (dose: 9.0 mg/kg/injection, schedule: Q01DX001 (ip), vehicle: saline + alcohol) 266 % of control; (dose: 13.0 mg/kg/injection, schedule: Q01DX001 (ip), vehicle: saline + alcohol) 179 % of control; (dose: 20.0 mg/kg/injection, schedule: Q01DX001 (ip), vehicle: saline + alcohol) 282 % of control.
`Oc1ccc(CCNCc2cc3c(cc2Br)OCO3)cc1`: the T/C was 101 % of control under setting [16], 96 % of control under setting [17] and 108 % of control under setting [18].
Take `CC(=O)CCC(C(=O)c1ccccc1)c1ccccc1` (stereo not given): the T/C (dose: 222.0 mg/kg/injection, schedule: Q01DX Z (ip), vehicle: methylcellulose (MC)) was 101 % of control.
As for `O=C(C1C(c2ccccc2)C1c1ccccc1)N(CCO)Cc1ccccc1` (stereo not given), the T/C (dose: 25.0 mg/kg/injection, schedule: Q04DX002 (ip), vehicle: Klucel (hydroxypropylcellulose) (HPC)) is 94 % of control; the T/C (dose: 50.0 mg/kg/injection, schedule: Q04DX002 (ip), vehicle: Klucel (hydroxypropylcellulose) (HPC)) is 103 % of control; the T/C under setting [9] was 94 % of control.
For `O=[N+]([O-])c1cc([N+](=O)[O-])c(NN(c2ccc(Cl)cc2)c2ccc(Cl)cc2)c([N+](=O)[O-])c1`, the T/C runs as follows: (dose: 25.0 mg/kg/injection, schedule: Q01DX009 (ip), vehicle: Klucel (hydroxypropylcellulose) (HPC)) 96 % of control; under setting [16], 105 % of control; under setting [17], 98 % of control; under setting [6], 98 % of control; under setting [7], 96 % of control; under setting [8], 96 % of control.
As to `Nc1nc2c(c(=O)[nH]1)N(CC(=O)O)C(CNc1ccc(C(=O)NC(CCC(=O)O)C(=O)O)cc1)CN2` (stereo not given), the T/C was 94 % of control (dose: 100.0 mg/kg/injection, schedule: Q01DX001 (ip), vehicle: alkali diluted with saline); 93 % of control (dose: 200.0 mg/kg/injection, schedule: Q01DX001 (ip), vehicle: alkali diluted with saline); 96 % of control (dose: 400.0 mg/kg/injection, schedule: Q01DX001 (ip), vehicle: alkali diluted with saline).
For the compound `CCCCCCCCCCCCCCCCOc1ccc2ccccc2c1`, the T/C is, setting by setting: under setting [6], 97 % of control; under setting [7], 102 % of control; under setting [8], 91 % of control.
With `CC(C)(C)OC(=O)NC(CCCCNC(=O)C(F)(F)F)C(=O)ON1C(=O)CCC1=O` (stereo not given), the T/C was 93 % of control (dose: 25.0 mg/kg/injection, schedule: Q01DX009 (ip), vehicle: saline with Tween-80); 95 % of control (dose: 50.0 mg/kg/injection, schedule: Q01DX009 (ip), vehicle: saline with Tween-80); 90 % of control under setting [1].
In the case of `CCOC(=O)c1cc(OCC)nc(SC)n1`, the T/C runs as follows: (dose: 25.0 mg/kg/injection, schedule: Q01DX Z (ip), vehicle: methylcellulose (MC)) 86 % of control; (dose: 50.0 mg/kg/injection, schedule: Q01DX Z (ip), vehicle: methylcellulose (MC)) 100 % of control.
As for `CC(=O)C1CCC2C3=CC=C4CC(OC(=O)C5CCCCC5)CCC4(C)C3=CCC12C` (stereo not given), the T/C runs as follows: under setting [1], 100 % of control; under setting [3], 89 % of control; under setting [19], 108 % of control.
As for `CCOC1OC(c2ccccc2)=NS(=O)(=O)C1(C)C` (stereo not given), the T/C by setting is: under setting [9], 103 % of control; under setting [10], 106 % of control; under setting [11], 103 % of control.
`CC1=CN(C)C(=O)CC1`: the T/C (dose: 100.0 mg/kg/injection, schedule: Q01DX001 (ip), vehicle: acetone) was 96 % of control; the T/C (dose: 200.0 mg/kg/injection, schedule: Q01DX001 (ip), vehicle: acetone) was 96 % of control; the T/C (dose: 400.0 mg/kg/injection, schedule: Q01DX001 (ip), vehicle: acetone) is 104 % of control.
With `Nc1ncc(C(=O)c2ccccc2)cc1Br`, the T/C runs as follows: under setting [6], 97 % of control; under setting [7], 97 % of control; under setting [8], 97 % of control.
`CS(=O)(=O)OCC(OS(C)(=O)=O)C(COS(C)(=O)=O)OS(C)(=O)=O` (stereo not given): the T/C was 91 % of control under setting [1]; 92 % of control under setting [2]; 100 % of control under setting [3]; 96 % of control under setting [4]; 96 % of control under setting [19]; 96 % of control under setting [5].
On to `O=C(O)CNc1ccccc1C(=O)O`, for which the T/C was 105 % of control under setting [17]; 102 % of control under setting [6]; 98 % of control under setting [18]; 97 % of control under setting [7]; 92 % of control (dose: 400.0 mg/kg/injection, schedule: Q01DX009 (ip), vehicle: Klucel (hydroxypropylcellulose) (HPC)); 96 % of control under setting [8].
